Results published in patent publication US6355619B1, “Peptide tumor cell growth inhibitors” (Board of Regents, The University of Texas System, priority 1996, dated 2002).
Where two headings read alike, the source gives them in different places.

How the values were obtained:
[1] = molecular target: T1, C5a binding to human neutrophils (Homo sapiens, UniProt P21730); experiment: Binding of 125I-C5a to human neutrophils; settings: 100 μM peptide; 0.25 nM 125I-labeled C5a
T1 construct: endogenous in cells; host or cells: human blood neutrophils
Excerpt: (§1) To examine the specificity of Ac-RRWWCR-NH2 (SEQ ID NO:1) on ligand-receptor binding, the inventors tested whether the peptide reduced the binding of human ^125I-C5a or ^3H-leukotriene B4 to human neutrophils.
(§2) Recombinant human fifth component of complement (C5a) (Sigma Chemical Co., St. Louis, Mo.) was radioiodinated enzymatically using Enzymobead (Bio Rad, Richmond, Calif.). Tritiated leukotriene B4 was purchased from Du Pont Co., Wilmington, Del. Binding assays for C5a and leukotriene B4 were performed as described for IL-8 binding in Example I, except that the buffers used were PBS containing 1 mM CaCl2, 0.5 mM MgCl2, 0.5% BSA, and HBSS containing 0.1% ovulabumin and 10 mM HEPES (pH7.3), respectively, as previously described (Braunwalder et al., 1992; Sherman et al., 1988). The radioactivity was measured with liquid scintillation counter for the leukotriene B4 assay. The binding of both ligands were saturable and inhibited by the non-labeled agonists in dose dependent manners.

[2] = molecular target: T2, leukotriene B4 binding to human neutrophils (Homo sapiens, UniProt Q15722); experiment: Binding of 3H-leukotriene B4 to human neutrophils; settings: 100 μM peptide; 0.4 nM 3H-labeled leukotriene B4
T2 construct: endogenous in cells; host or cells: human blood neutrophils
Excerpt: as §1, §2

[3] = tested on: IL-8-induced neutrophil chemotaxis; experiment: Neutrophil chemotaxis stimulated by IL-8 (leading front, Boyden chamber); type: cell-based, human
Experimental: FIG. 7. The Effect of Ac-RRWWCR-NH2 (SEQ ID NO:1) on Neutrophil Chemotaxis. Chemotaxis was performed in the presence of increasing concentration of Ac-RRWWCR-NH2 (SEQ ID NO:1) in both upper and lower chamber. Stimulants added to lower chamber were 10 nM IL-8 (●), 10 nM fMLP (▪), or media alone (◯) as control. Analysis of variance was used for multiple comparison.
Chemotaxis was performed using the leading front method as described by Zigmond and Hirsh (1973). IL-8 or controls were placed in the lower well of a Boyden chamber. A five micron pore size, 100 μm. thick cellulose nitrate filter (Sartorius Filter,. Inc., San Francisco, Calif.) was placed on the surface and the chamber was then assembled. A 200 μl aliquot of the neutrophil preparation (1×10^6 cells/ml) in RPMI-1640 media containing 1% BSA was added to the top of the filter and incubated at 37° C. for 30 min. The filter was then fixed, stained and mounted on a glass microscope slide. The leading front was determined by the position of the leading two cells. The distance that the leading two cells had moved through the filter was measured for six fields on each filter. The measurements were made with four filters for each set of conditions.

[4] = tested on: A549 (adenocarcinoma of lung); experiment: Growth of A549, cell count; type: cell-based; settings: A549, 7 days, media replaced every 24 hours
Experimental: FIG. 20 The effect of Antileukinate on growth of A549 (adenocarcinoma of lung). A549 cells were plated at a density of 5×10^3 cells in 24-well plate with growth medium. After the cells adhered to the plate, supernatants were aspirated and culture media containing various concentrations of Antileukinate were added to the wells. The media was replaced every 24 hours and the cells were cultured for 7 days. After incubation, cells were detatched with trypsin-EDTA and the cell number was counted using a hemocytometer. Cell number was decreased in a dose-dependent manner and there are significant differences from control at concentrations greater than, or equal to 50 μM of Antileukinate (p<0.05).

[5] = tested on: adenocarcinoma from colon Caco-2; experiment: Tumor cell growth, Caco-2; type: cell-based
Hep G2 = settings: 16 hr
Experimental: The cell lines (4×10^5 cells/well) in RPMI-1640 medium containing 10% fetal bovine serum were incubated with 10 μCi of Na2^51CrO4 (DuPont NEN Co.) for 60 min at 37° C. in a 24 well tissue culture plate. The cells were washed 3 times and then incubated in cell culture medium for 30 min at 37° C. to allow spontaneous lysis of marginally viable cells. […] The cells were cultured for 16 hr at 37° C. and then the radioactivity in the supernatants was counted in a gamma radiation spectrometer. Quadriplicate wells received cell culture medium alone or 2% SDS to determine spontaneous and maximum release, respectively. The percentage lysis was calculated by using the following formula: [formula]

T2 sequence (Q15722 whole entry): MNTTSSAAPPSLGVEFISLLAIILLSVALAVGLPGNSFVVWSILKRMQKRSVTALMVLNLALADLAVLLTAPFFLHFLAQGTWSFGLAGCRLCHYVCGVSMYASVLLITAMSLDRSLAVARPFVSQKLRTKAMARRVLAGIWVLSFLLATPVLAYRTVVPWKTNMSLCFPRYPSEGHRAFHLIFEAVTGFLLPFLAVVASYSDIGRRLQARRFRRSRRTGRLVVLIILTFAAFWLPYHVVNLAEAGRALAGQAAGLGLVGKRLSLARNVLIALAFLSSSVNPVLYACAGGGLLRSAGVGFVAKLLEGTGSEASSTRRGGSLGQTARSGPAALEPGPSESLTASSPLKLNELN
T1 sequence (P21730 whole entry): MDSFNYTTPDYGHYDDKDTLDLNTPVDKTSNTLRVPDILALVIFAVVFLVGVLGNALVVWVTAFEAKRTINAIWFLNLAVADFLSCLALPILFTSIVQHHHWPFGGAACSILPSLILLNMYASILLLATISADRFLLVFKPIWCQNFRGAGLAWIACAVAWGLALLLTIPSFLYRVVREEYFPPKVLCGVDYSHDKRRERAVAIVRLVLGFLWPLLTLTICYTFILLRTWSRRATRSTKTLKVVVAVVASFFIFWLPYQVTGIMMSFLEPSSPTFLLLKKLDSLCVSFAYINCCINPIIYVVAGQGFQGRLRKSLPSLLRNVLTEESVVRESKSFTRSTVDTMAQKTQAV

For RRWWCR [Ac-RRWWCR-NH2], the “effect on binding of C5a to neutrophils” value [1] was “did not affect the binding”, the “effect on binding of leukotriene B4 to neutrophils” value [2] was “did not affect the binding” and the “peptide concentration significantly suppressing chemotaxis” value ([3]; chemotaxis induced by 10 nM IL-8) was 50 lM. For the same substance, the “peptide concentration significantly inhibiting chemotaxis” value ([3]; neutrophils stimulated with 10 nM IL-8) was 50 µM, the “concentrations with significant difference in cell number from control (p<0.05)” value [4] was ≥ 50 µM and the “effect on cell growth” value [5] was “inhibits growth”. The “% cell lysis” value (Hep G2; Hep G2, 1 μM peptide) was −2.1 ± 7.5%, the “% cell lysis” value (Hep G2; Hep G2, 5 μM peptide) was −0.8 ± 8.3% and the “% cell lysis” value (Hep G2; Hep G2, 20 μM peptide) was 5.8 ± 8.3%. For the same substance, the “% cell lysis” value (Hep G2; Hep G2, 100 μM peptide) was 0.9 ± 2.9%.
